How the values were obtained:
[1] = Chemical stability in phosphate buffered saline assessed as compound degradation at 0.05 M at pH 7.4 at 5 degC after 1 hr by HPLC; type: physicochemical; details: buffer, pH 7.4, 1 h
[2] = Clearance in Rowet nu/nu rat plasma at 15 mg/kg, iv after 5 mins to 6 hrs; type: ADME, organism-based; set-up: dose 15 mg/kg, route intravenous
[3] = Chemical stability in phosphate buffered saline assessed as compound degradation at 0.05 M at pH 7.4 at 5 to 40 degC after 14 days by HPLC; type: physicochemical; details: buffer, pH 7.4, 336 h
[4] = AUC (0 to 360 mins) in Rowet nu/nu rat plasma at 15 mg/kg, iv after 5 mins to 6 hrs; type: ADME, organism-based; set-up: time < 6 hr, dose 15 mg/kg, route intravenous
[5] = Chemical stability in phosphate buffered saline assessed as compound degradation at 0.05 M at pH 7.4 at 25 degC after 1 hr by HPLC; type: physicochemical; details: buffer, pH 7.4, 1 h
[6] = Chemical stability in phosphate buffered saline assessed as compound degradation at 0.05 M at pH 7.4 at 40 degC after 1 hr by HPLC; type: physicochemical; details: buffer, pH 7.4, 1 h
[7] = AUC (0 to 360 mins) in Rowet nu/nu rat plasma at […], iv after 5 mins to 6 hrs; type: ADME, organism-based; set-up: time < 6 hr, route intravenous
[8] = Half life in rat at 125 mg/kg/hr, iv after 2 hrs; type: ADME, organism-based; set-up: route intravenous; details: in vivo
[9] = Clearance in Rowet nu/nu rat plasma at […], iv after 5 mins to 6 hrs; type: ADME, organism-based

Q: Which Stability [1] does the source give for `O=C(O)CCCCCCCC(=O)OC[C@H]1CC[C@@H](n2cnc3c(=O)[nH]cnc32)O1` here?
A: Stable

Q: What about the clearance [2] of the same molecule?
A: 107 mL/min/kg

Q: And the Stability [3]?
A: Unstable

Q: And the AUC(0-t) at 6 h [4]?
A: 2680 ng·h/mL

Q: And the Stability [5]?
A: Stable

Q: And the Stability [6]?
A: Stable

Q: Which results are given for `O=C(O)CCCCCCCCCCC(=O)OC[C@H]1CC[C@@H](n2cnc3c(=O)[nH]cnc32)O1`?
A: Stability [1]: Stable; Stability [3]: Unstable; Stability [5]: Stable; Stability [6]: Stable

Q: With `O=C(O)CCCCC(=O)OC[C@H]1CC[C@@H](n2cnc3c(=O)[nH]cnc32)O1` as the molecule, how does the Stability [1] read?
A: Stable

Q: And the Stability [3]?
A: Unstable

Q: And the Stability [5]?
A: Stable

Q: And the Stability [6]?
A: Stable

Q: Which AUC(0-t) at 6 h [7] does the source give for `O=c1[nH]cnc2c1ncn2[C@H]1CC[C@@H](CO)O1` [DIDANOSINE] here?
A: 2100 ng·h/mL

Q: What about the half-life [8] of the same molecule?
A: 1 h

Q: And the clearance [9]?
A: 134 mL/min/kg

— ChEMBL document CHEMBL1154159, “Didanosine ester prodrugs: synthesis, albumin binding properties and pharmacokinetic studies in rats” (Eur J Med Chem, 2009)
